Laboratory results: US20050014735A1, “Treatment of Th2 dominated immunological disease states with progesterone receptor antagonists” (Solvay Pharmaceuticals GmbH, priority 2001, published 2005)

Legend:
[1] = tested on: peripheral blood mononuclear cells (PBMC); test: Th1 and Th2 cytokine profiles produced by mitogen-stimulated PBMC (ELISA), ex vivo; assay type: cell-based, human
Protocol: The effects of dydrogesterone on Th1 and Th2 cytokine profiles produced by mitogen-stimulated peripheral blood mononuclear cells (=PBMC) were determined. Several studies have pointed to a deviation of cytokine profiles in women when during pregnancy. Pregnancy is associated with a shift towards Th2 bias, evinced by changes in peripheral T cells, by cytokine production by peripheral lymphocytes and by cytokine changes at the maternal-fetal interface. Unexplained recurrent spontaneous abortion (URSA) seems to be associated with a stronger bias towards Th1 cytokines. Women who have earlier been gone through URSA may therefore be regarded as a pre-selected group of patients that will typically respond to an immunological stimulation by showing a Th1 dominated pattern of immune response. The pharmacological test was therefore performed with a suitable URSA group which comprised of women admitted with spontaneous abortion for evacuation, (i) who have had at least two previous unexplained miscarriages, (ii) who were currently undergoing at least a 3rd abortion and (iii) who had been fully investigated. The relationship between habitual abortion and cytokine production response in 54 women with normal pregnancy (and at least 3 previous normal pregnancies) and 23 women with a history of habitual abortion of unexplained aetiology (URSA group) has been investigated. Peripheral blood was obtained by venipuncture from the abortion group on the day of abortion. PBMC is separated by Ficoll-paque (Pharmacia Biotech, Sweden) density gradient centrifugation, suspended in RPMI medium (=“Roswell Park Memorial Institute”-medium; obtained from GIBCO/BRL, USA) containing 10% fetal calf serum, aliquoted into 96 well tissue culture plates at a density of 100.000 cells per well and then stimulated with the mitogen phytohemagglutinin (=PHA, Sigma Chemicals, USA) at a concentration of […] for a period of 96 hours, with autologous placental antigens or with trophoblast antigens. […] Progesterone was tested at concentrations of […]. RU486 was tested at equivalent concentrations. Culture supernatants were harvested at 96 hours for determination of the levels of cytokines secreted by the PBMC into the supernatants. Cytokine levels were determined in the supernatants by enzyme-linked immunosorbent assay (=ELISA). Each sample was tested in the following manner: • PBMC+mitogen • PBMC+mitogen+progesterone • PBMC+mitogen+progesterone+RU486 • PBMC+mitogen+dydrogesterone • PBMC+mitogen+dydrogesterone+RU486 • PBMC+mitogen+Carrier • PBMC+mitogen+Carrier+RU486 Th1 cytokines TNF-α and IFN-γ, and Th2 cytokines IL-4, IL-6 and IL-10 were evaluated in these samples by ELISA using kits that were obtained from Immunotech SA, France. These consisted of “sandwich ELISA”; briefly the first step leads to the capture of the relevant cytokine by monoclonal anti-cytokine antibodies bound to the wells of microtiter plates. In the second step, a second biotinylated monoclonal is added together with streptavidin-enzyme (peroxidase or alkaline phosphatase) conjugate. The biotinylated antibody binds to the solid phase antibody-antigen complex, and in turn, binds the conjugate. After incubation the wells are washed and the binding of the streptavidin-enzyme via biotin is followed by the addition of a chromogenic substrate. The intensity of the coloration produced is proportional to the concentration of the cytokine in the sample. Standard curves are plotted for each of the cytokines using reference recombinant cytokines and the results are read from these curves. The sensitivity of each of the assays is as follows: 5 pg/ml of TNF-α, 0.08 IU/ml of IFN-γ, 5 pg/ml of IL-4 and 5 pg/ml of IL-10. Results will be analysed by the t-test for independent samples.

[2] = tested on: Th1 cytokine production; details: in vitro, women with recurrent pregnancy loss; cited from earlier work
[3] = PBMC of women with spontaneous abortion and habitual abortion
[4] = PBMC supernatant, ELISA, 96 hours

Row | Compound | Th1/Th2 bias of cytokine profile [1, 3] | activity of lymphocytes [1, 3] | IFN-γ level [1, 4] | Interleukin 4 level [1, 4] | Interleukin 6 level [1, 4] | release of progesterone induced blocking factor (PIBF) ([1]; women with spontaneous abortion and habitual abortion) | embryotoxic Th1 cytokine production to trophoblast [2]
1 | CC(=O)[C@H]1CC[C@H]2[C@@H]3C=CC4=CC(=O)CC[C@@]4(C)[C@@H]3CC[C@]12C [dydrogesterone] | shift from a Th1 towards a Th2 bias | reduced | reduction | marked increase | marked increase | increased release | –
2 | CC(=O)[C@H]1CC[C@H]2[C@@H]3CCC4=CC(=O)CC[C@]4(C)[C@H]3CC[C@]12C [progesterone] | – | – | – | – | – | – | inhibits
